Columns and labels:
Format in all cases: cell-based
MIA PaCa-2 cells [1] = test: Metabolic flux analysis, basal mitochondrial respiration (OCR) (FIG. 8C left); settings: MIA PaCa-2, total 18 h
Protocol: (§1) FIG. 8C left panel presents the results of metabolic flux analysis showing basal mitochondrial respiration (OXPHOS) (oxygen consumption rate, OCR) in MIA PaCa-2 cells following treatment with combinations or single drugs. Treatment was for a total of 18 h, as mentioned in FIG. 8A. Statistical significance was determined by one-way ANOVA, ***p value<0.001, *p value<0.01. FIG. 8C right panel presents the results of quantification of glutamine consumption. Cells were treated as mentioned in FIG. 8A. Prior to the metabolic measurements cells were starved of glucose, glutamine, and pyruvate for 1-hour after which glutamine was added and response was recorded as ΔOCR (i.e. OCR before and after glutamine addition). Statistical significance was determined by one-way ANOVA, ****p value<0.0001, ***p value<0.0005.
(§2) Because reprograming/augmentation of cellular metabolism by c-MYC is known to support oncogenesis, the Seahorse XF analyzer was used to assess the impact of the treatments on c-MYC-driven metabolism including ATP production, glycolysis, and mitochondrial oxidative phosphorylation (OXPHOS). Extracellular acidification rates, also known as proton efflux rate (PER), were measured for glycolysis and mitochondrial oxygen consumption rates (OCR) for OXPHOS. We utilized the 6 h exposure followed by 18 h washout strategy for romidepsin described earlier. […]

MIA PaCa-2 cells [2] = test: Glutamine consumption/rescue of mitochondrial function (ΔOCR) (FIG. 8C right); settings: cells starved of glucose, glutamine and pyruvate 1 h, then glutamine
Protocol: as §1, §2

H3K9ac = test: Immunoblot of H3K9ac protein levels (FIGS. 5A-5C, 9C); settings: romidepsin 15 nM 6 h; with or without DMPatA 2 nM
Protocol: FIGS. 5A-5C are images of immunoblots of protein levels from whole cell extracts of MIA PaCa-2 cell line following treatment with representative combinations Class 1 HDAC inhibitors and DMPatA, DMPatA alone, and HDAC inhibitor alone. FIG. 5A compares immunoblots of H3K9ac (top panel) and GAPDH (bottom panel) protein levels from whole cell extracts of MIA PaCa-2 cells following treatment with the combination of romidepsin and DMPatA and single drugs. Romidepsin treatment was for 6 hours. FIG. 5B compares immunoblots of H3K9ac protein levels from whole cell extracts of MIA PaCa-2 and KLM cells untreated or following treatment with the combination of entinostat and DMPatA and single drugs. Treatments were for various timepoints ranging from 6 to 24 hours. […]
This apparent hypertranscription observed with the combination, was confirmed by the increase in nascent RNA output above the level of normal cells, following treatment for a total of 18 hours (i.e., 6-hour romidepsin followed by 12-hour washout with or without 2 nM DMPatA), quantified using incorporation of the modified RNA precursor 5-EU. […] Because HDAC inhibitors cause histone hyperacetylation and having observed the increase in gene expression following treatment with the combination, the impact of the combination on histone acetylation was assessed. […]

SMILES: C/C=C1\NC(=O)[C@H]2CSSCC/C=C/[C@H](CC(=O)N[C@H](C(C)C)C(=O)N2)OC(=O)[C@H](C(C)C)NC1=O [romidepsin]
- mitochondrial function (OCR) (MIA PaCa-2 cells [1]): impaired mitochondrial function
- glutamine rescue of mitochondrial function (ΔOCR) (MIA PaCa-2 cells [2]): impaired glutamine rescue of mitochondrial function
- H3K9 acetylation (H3K9ac): only a small effect

— patent US20260335398A1, “METHODS FOR TREATING PANCREATIC CANCER WITH A COMBINATION OF DES-METHYL PATEAMINE A AND A CLASS I HDAC INHIBITOR” (Baylor University, priority 2023, published 2026)
